Tested on: homocysteine ematic level
Assay: Randomised clinical study in patients with hyperhomocysteinemia; plasma homocysteine determined by immunoenzymatic test (EIA) at enrolment and after 30 days of treatment
Format: in vivo
Excerpt: Assessments about the pharmacological effectiveness of the composition according to the present invention have been carried out according to the following study protocol.
The experimentation has examined a total number of 60 patients assigned to one of the two treatment groups (30 patients to group A and 30 patients to group B).
• Patients of both sexes • Age older than 18 • Homocysteinemia level >15 µmol/l
• Patients suffering from diseases interfering with the homocysteine dosage • Patients in therapy with drugs interfering with the homocysteine metabolism (isoniazid, antiepileptic, methotrexate) • Subjects with ascertained individual hypersensitivity towards the active principles and/of the excipients of the product • Women during pregnancy or puerperium • Patients suffering from diabetes mellitus […]
The obtained data have been assessed statistically withe Student's t test and the significance is expressed as follows: P<0.05*; P<0.01**; P<0.001***

## arginine glutamate
General statement of the applicant's experimental data, dose and duration not stated at the place
  reduction in the homocysteine plasmatic levels: 10-15%
Patients with homocysteinemia >15 µmol/l, 10-ml small bottle which can be drunk, twice a day for 30 days, 30 patients per group, Student's t test (composition 9 p≤0.001; arginine glutamate only p≤0.01)
  reduction in the homocysteine plasmatic values: 12%
